Laboratory results as given in patent publication US11052082B2 (priority 2012, dated 2021).
Entries after “also recorded” stand apart in the source; their conditions may differ. Counter-ions that a name gives are not always drawn. Peptide text beside a SMILES is read from it. * marks the point of attachment. Cbz = O=C(OCc1ccccc1)*; CH2F = FC*

Assays:
BCP-ALL-cell line Tanoue [1] = type: cell-based, human; conditions: for effect on apoptosis rates of combination treatment with D,L-methadone and doxorubicin: 3 μg/mL D,L-methadone + 0.06 μg/mL doxorubicin, 60 μg/mL naloxone, 200 μM IBMX or PTX
glioblastoma cells A172 = test: Apoptosis / cell death in glioblastoma cells A172; type: cell-based; conditions: for effect on apoptosis induced by combination treatment with D,L-methadone and doxorubicin: 100 μg/mL naloxone or 25 μM IBMX, 3 μg/mL D,L-methadone, 0.3 μg/mL doxorubicin, 120 h
[2] = tested on: opioid-receptors on BCP-ALL-cell line Tanoue; test: Flow cytometric cell surface opioid-receptor expression, Tanoue; type: cell-based, human; conditions: 0.06 μg/mL doxorubicin; 96 h
Protocol: (§1) Cells were washed in PBS supplemented with 1% FCS, centrifuged and resuspended in PBS/1% FCS containing naloxone-fluoresceine (0.05 mM, Invitrogen) (Hedin et al., 1997). After 30 min of incubation at RT, the cells were washed twice with PBS/1% FCS, centrifuged and resuspended in icecold PBS/1% FCS. Flowcytometry analysis was performed using FACSCalibur (BD, Heidelberg, Germany).
(A) Doxorubicin enhances opioid receptor expression on the cells' surface. The BCP-ALL-cell line Tanoue was treated for 96 h with 0.06 μg/mL doxorubicin. After staining of doxorubicin-treated (+Doxo) and untreated cells (−Doxo) with naloxone-fluoresceine relative fluorescence intensities were determined flowcytometrically. X-fold increase in opioid receptor expression is shown after subtracting the cells' autofluorescence (−Doxo) and doxorubicin fluorescence (+Doxo).

[3] = Tolerability (body weight, maximum tolerated dose) in ALL-SCID6 xenograft mice; conditions: same regimen as tumour growth study
[4] = tested on: opioid receptor on glioblastoma cell line A172; test: Opioid receptor expression, A172; type: cell-based; conditions: 0.1 μg/mL doxorubicin; 106 h
Protocol: as §1
(A) The glioblastoma cell line A172 was treated for 106 h with 0.1 μg/mL doxorubicin. After staining of doxorubicin-treated (doxorubicin) and untreated cells with naloxone-fluorescein (naloxone) relative fluorescence intensities were determined flowcytometrically. (B) Tabular summary of untreated and doxorubicin control cells, naloxone treated cells, whereas D(naloxone-control) represents the median fluorescence intensities after subtracting the cells' autofluorescence (control).

[5] = tested on: Trastuzumab resistant breast cancer cells JIMT-1; test: Apoptosis / cell death in JIMT-1 breast cancer cells; type: cell-based, human
[6] = Serum concentrations in ALL-SCID6 xenograft mice; conditions: male, NOD/SCID/IL2ry null (NSG), mouse, in vivo, 3 mg/kg
ALL-SCID6 xenograft = test: Patient-derived ALL-xenograft tumour growth; type: in vivo, NOD/SCID/IL2ry null (NSG) mice; conditions: D,L-methadone orally day 1-76, 20 up to 120 mg/kg/day; doxorubicin 3 mg/kg i.v. day 46, 53, 60, 76
[7] = tested on: Pancreatic cancer cells Colo 357; test: Cell death in pancreatic cancer cells; type: cell-based
[8] = tested on: opioid receptor on promyelocytic leukemia cell line HL60; test: Opioid receptor expression, HL60; type: cell-based, human; conditions: 0.3 μg/mL cisplatin; 24 h
Protocol: as §1
After staining of cisplatin-treated (+Cisplatin) and untreated cells (−Cisplatin) with naloxone-fluoresceine relative fluorescence intensities were determined flowcytometrically. 2.1-fold increase in opioid receptor expression is shown after subtracting the cells autofluorescence.

[9] = tested on: A2780 ovarian cancer cells; test: Cell death in A2780 ovarian cancer cells; type: cell-based; conditions: 2 μg/mL cisplatin alone; 144 h
glioblastoma cells = test: Apoptosis / cell death in glioblastoma cells (opioid comparison, naloxone); type: cell-based; conditions: 60 μg/mL naloxone, 3 μg/mL D,L-methadone, 0.1 μg/mL doxorubicin; 120 h and 144 h
[10] = tested on: caspases, PARP, XIAP, Bcl-xL in glioblastoma cells A172; test: Western blot of apoptosis effectors in A172; type: cell-based
[11] = tested on: caspase-2, caspase-9, caspase-3, PARP, XIAP, Bcl-xL in BCP-ALL-cell line Tanoue; test: Western blot analysis of apoptosis effectors in Tanoue; type: cell-based, human; conditions: 60 μg/mL naloxone; 96 h
U87MG glioblastoma = U87MG glioblastoma xenograft tumour growth; type: in vivo, nude-mice; conditions: days 19 to 33
[12] = tested on: human T cell leukemia, human acute myeloid leukemia, human B cell precursor leukemia, human B cell leukemia; test: Apoptosis in different leukemia cells, D,L-methadone plus cisplatin; type: cell-based
[13] = tested on: leukemia cancer cells (Nalm-6), pancreatic cancer cells (Colo357), ovarian cancer cells (A2780); test: Sensitization for etoposide or cisplatin treatment; type: cell-based; conditions: 0.03 μg/mL etoposide or 0.3 μg/mL cisplatin; D,L-methadone 10, 3, 1 μg/mL; 120 to 144 h
BCP-ALL-cell line Tanoue [14] = test: Doxorubicin uptake and efflux, Tanoue; type: cell-based, human
[15] = tested on: glioblastoma cell line A172; test: Doxorubicin uptake and efflux, A172; type: cell-based; conditions: 0.3 μg/mL doxorubicin
pre-B-ALL-SCID = test: Apoptosis induction in xenograft-derived BCP-ALL cells; type: cell-based, human; conditions: therapeutic concentrations of D,L-methadone alone; moderate opioid-receptor level
[16] = tested on: caspase-8, -9, -3, PARP, XIAP, Bcl-xL in JIMT-1 cells; test: Western blot of apoptosis effectors in JIMT-1; type: cell-based, human; conditions: D,L-methadone 10, 3, 1 μg/mL + 0.015 μg/mL doxorubicin; 96 h
[17] = tested on: BCP-ALL-cell lines (Tanoue, Reh, Nalm6); test: Apoptosis induction in BCP-ALL-cell lines; type: cell-based, human; conditions: D,L-methadone alone; 120 h
[18] = Tolerability (body weight) in U87MG xenograft mice; conditions: D,L-methadone 60 to 240 mg/kg/d
[19] = tested on: apoptosis pathways in glioblastoma-initiating stem cells; test: Western blot of apoptosis pathways in glioblastoma-initiating stem cells; type: cell-based; conditions: 3 μg/mL D,L-methadone + 0.1 μg/mL doxorubicin; 144 h

Compound: CC(C)Cn1c(=O)n(C)c(=O)c2[nH]cnc21 [IBMX, 3-Isobutyl-1-methylxanthine]
- effect on doxorubicin-induced apoptosis (BCP-ALL-cell line Tanoue [1]; 200 μM IBMX, 0.06 μg/mL doxorubicin, 96 h): decreased doxorubicin-induced apoptosis
- effect on apoptosis rates of combination treatment with D,L-methadone and doxorubicin (BCP-ALL-cell line Tanoue [1]; 96 h): strongly reduced the apoptosis rates
- effect on apoptosis induced by combination treatment with D,L-methadone and doxorubicin (glioblastoma cells A172; 144 h): strongly reduced apoptosis induction

Compound: COc1cccc2c1C(=O)c1c(O)c3c(c(O)c1C2=O)C[C@@](O)(C(=O)CO)C[C@@H]3O[C@H]1C[C@H](N)[C@H](O)[C@H](C)O1 [doxorubicin]
- opioid-receptor expression [2]: strongly increased opioid-receptor expression
- cell death (glioblastoma cells A172; 1 μg/mL doxorubicin alone, 144 h): 80%
- body weight changes [3]: −4%
- increase in opioid receptor expression [4]: 6 fold
- cell death ([5]; 0.1 μg/mL doxorubicin alone, 120 h): 70%
- serum concentrations of doxorubicin [6]: 156 to 198 ng/mL
- tumour growth inhibition (ALL-SCID6 xenograft): significant inhibition of tumour growth

Compound: N.N.[Cl][Pt][Cl] [cisplatin]
- cell death ([7]; 10 μg/mL alone, 120 h): 60%
- cell death ([7]; 10 μg/mL cisplatin alone, 144 h): 70%
- increase in opioid receptor expression [8]: 2.1 fold
- cell death [9]: 90%

Compound: pertussis toxin [PTX]
- effect on apoptosis rates of combination treatment with D,L-methadone and doxorubicin (BCP-ALL-cell line Tanoue [1]; 96 h): strongly reduced the apoptosis rates

Compound: C=CCN1CC[C@]23c4c5ccc(O)c4O[C@H]2C(=O)CC[C@@]3(O)[C@H]1C5 [naloxone]
- effect on apoptosis rates of combination treatment with D,L-methadone and doxorubicin (glioblastoma cells): strongly reduced the apoptosis rates
- effect on apoptosis induced by combination treatment with D,L-methadone and doxorubicin (glioblastoma cells A172; 144 h): strongly reduced apoptosis
- effect on activation of caspase-9, caspase-3 and cleavage of PARP by combination treatment ([10]; 100 μg/mL naloxone, 120 h): strongly reduced
- effect on apoptosis induced by combination treatment with D,L-methadone and doxorubicin ([5]; 100 μg/mL naloxone, 10 μg/mL D,L-methadone, 0.01 μg/mL doxorubicin, 96 h): strongly reduced apoptosis; also recorded: strongly inhibits apoptosis induction
- effect on caspase activation and PARP cleavage by D,L-methadone in addition to doxorubicin [11]: drastically reduced the activation of caspase-9, caspase-2 and caspase-3

Compound: CCC(=O)C(CC(C)N(C)C)(c1ccccc1)c1ccccc1 (racemic) [D,L-methadone, D,L-methadone hydrochloride]
- optimum T/C value (U87MG glioblastoma; D,L-methadone orally daily, 60 to 120 to 240 mg/kg/d bid): 49%
- tumour size vs vehicle (U87MG glioblastoma): significantly reduced tumour size
- cell death induction ([12]; D,L-methadone alone (−CDDP)): only be killed slightly
- caspases activation ([10]; D,L-methadone 3, 1 μg/mL + 0.1 μg/mL doxorubicin, 144 h): restored deficient caspases activation by doxorubicin
- body weight changes [3]: −8%
- sensitization for etoposide or cisplatin treatment [13]: sensitizes
- doxorubicin efflux (BCP-ALL-cell line Tanoue [14]; 8 h and 24 h after removing doxorubicin): reduced the doxorubicin efflux strongly
- doxorubicin uptake (BCP-ALL-cell line Tanoue [14]; co-incubation with 0.3 μg/mL doxorubicin, 24 h (0 h)): enhanced doxorubicin concentration in the cells
- doxorubicin efflux [15]: inhibit the efflux
- doxorubicin uptake ([15]; 10 μg/mL D,L-methadone): enhance the uptake
- cell death induction (pre-B-ALL-SCID): only be slightly killed
- caspases activation [16]: restored deficient caspases activation by doxorubicin
- cell death induction [17]: only be killed slightly
- body weight loss [18]: 9%
- activation of apoptosis pathways [19]: reversed deficient activation of apoptosis pathways by doxorubicin

Compound: CC(C)[C@H](NC(=O)OCc1ccccc1)C(=O)N[C@@H](C)C(=O)N[C@@H](CC(=O)O)C(=O)CF [zVAD.fmk, benzoylcarbonyl-Val-Ala-Asp-fluoromethylketone] (Cbz-Val-Ala-Asp-CH2F)
- effect on cell death after combination treatment with D,L-methadone and cisplatin ([12]; zVAD.fmk pre-incubation): strongly decreased cell death
- effect on apoptosis induced by D,L-methadone in addition to cisplatin ([7]; 50 μmol/L zVAD.fmk, cisplatin 0.7 or 0.5 μg/mL): almost completely inhibited apoptosis
- effect on apoptosis induced by D,L-methadone in addition to oxaliplatin ([7]; 50 μmol/L zVAD.fmk, oxaliplatin 3 or 2 μg/mL): almost completely inhibited apoptosis
- effect on cell death after combination treatment with D,L-methadone and doxorubicin (BCP-ALL-cell line Tanoue [1]; 50 μM zVAD.fmk pre-incubation, 0.06 μg/mL doxorubicin, 120 h): strongly decreased cell death
- effect on apoptosis induced by cotreatment of D,L-methadone and doxorubicin (glioblastoma cells A172; 50 μmol/L zVAD.fmk, 0.1 μg/mL doxorubicin, 120 h and 144 h): blocks apoptosis
- effect on apoptosis induced by cotreatment of D,L-methadone and doxorubicin ([5]; 50 μmol/L zVAD.fmk, 0.015 μg/mL doxorubicin, 96 h, 120 h): blocks apoptosis
